Experimental data reported in article PMC10786919, “Design-rules for stapled peptides with in vivo activity and their application to Mdm2/X antagonists” (Nature Communications, 2024).
Converted amounts (≈) assume the structure as drawn. Like-named read-outs stand apart in the source and are kept apart here. Positions of bridges follow the written chain, without caps; N, C: chain ends. Non-standard residues stand in square brackets, D forms with d. Residues, ends and D or L forms follow the SMILES beside them. Lys(N3) = [N-]=[N+]=NCCCC[C@H](N)C(=O)O; R8 = C=CCCCCCC[C@@](C)(N)C(=O)O; Cba = N[C@@H](CC1CCC1)C(=O)O; S5 = C=CCCC[C@](C)(N)C(=O)O; βAla = NCCC(=O)O

Assays:
[1] = Lactate dehydrogenase (LDH) release assay; assay type: cell-based
Summary of the method: (§1)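 Geometric means of at least three independent biological runs are given for LDH release measured in HCT116 cells stably expressing a p53-driven β-lactamase reporter. Plating density was 8000 cells/well; DMSO in wells was 0.5%.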

HCT116 cells = experiment: Lactate dehydrogenase (LDH) release assay; assay type: cell-based
Summary of the method: as §1

[2] = Solubility assay (kinetic solubility, PBS pH 7); assay type: physicochemical; details: pH 7, aqueous buffer, kinetic from dmso stock, pH 7, PBS; read-out: Solubility
Summary of the method: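 Std: 10 mM stock → 100 µM in ACN/MeOH/DMSO (10:80:10). Sol. [µM] = (sample peak area / std peak area) × std conc.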

[3] = Nanoclick permeability assay
Summary of the method: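 Azido-peptide permeability was read as loss of NanoBRET signal (donor 450 nm, acceptor 610 nm) after adding NanoBret618-azide at 10 μM final.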

[4] = Experimental LogD (partition coefficient); details: not stated, Partition Coeff LogD
[5] = 0% FBS 4Hr, read-out: LDH: Cytotoxicity assay EC50
[6] = Nanoclick permeability assay EC50

| Structure (SMILES) | EC50 [1, 5] [µM] | EC50 ([1]; 10% FBS 4Hr, read-out: LDH: Cytotoxicity assay EC50) [µM] | LDH: Cytotoxicity assay % Effect (HCT116 cells; 0% FBS 4Hr) [%] | LDH: Cytotoxicity assay % Effect (HCT116 cells; 10% FBS 4Hr) [%] | solubility kinetic [2] [µM] | cell entry EC50 [3] [µM] | EPSA (physchem) [A^2] | logD [4] | LDH: Cytotoxicity assay % Effect (HCT116 cells; 0% FBS 16Hr) [%] | EC50 ([1]; LDH: Cytotoxicity assay EC50) [µM] | cell entry EC50 [3, 6] [µM] |
| --- | --- | --- | --- | --- | --- | --- | --- | --- | --- | --- | --- |
| CC(=O)N[C@@H](CCCCN=[N+]=[N-])C(=O)NCCC(=O)N[C@@H](CC(C)C)C(=O)N[C@H](C(=O)N[C@@H](Cc1ccccc1)C(=O)N[C@]1(C)CCCCCCC=CCCC[C@@](C)(C(=O)N[C@@H](CO)C(=O)N[C@@H](C)C(=O)N[C@@H](C)C(N)=O)NC(=O)[C@H](CC2CCC2)NC(=O)[C@H](C)NC(=O)[C@H](C)NC(=O)[C@H](Cc2c[nH]c3ccccc23)NC(=O)[C@H](Cc2ccc(O)cc2)NC(=O)[C@H](CCC(=O)O)NC1=O)[C@@H](C)O [MP-955, AZIDE-ATSP-7041 (Q9A)] (Ac-[Lys(N3)][βAla]LTF[R8]EYWAA[Cba][S5]SAA-NH2; staple 6-13) | > 50 | > 50 | 21.34 | -4.376 | 86.5 (≈ 165 µg/mL) | 0.582 | 215 | 2.94 |  |  |  |
| CC(=O)N[C@@H](CCCCN=[N+]=[N-])C(=O)NCCC(=O)N[C@@H](CC(C)C)C(=O)N[C@H](C(=O)N[C@@H](Cc1ccccc1)C(=O)N[C@]1(C)CCCCCCC=CCCC[C@@](C)(C(=O)N[C@@H](CCCCN)C(=O)N[C@@H](C)C(=O)N[C@@H](C)C(N)=O)NC(=O)[C@H](CC2CCC2)NC(=O)[C@H](CCC(N)=O)NC(=O)[C@H](C)NC(=O)[C@H](Cc2c[nH]c3ccccc23)NC(=O)[C@H](Cc2ccc(O)cc2)NC(=O)[C@H](CCC(=O)O)NC1=O)[C@@H](C)O [MP-551, AZIDE-ATSP-7041 (S12K)] (Ac-[Lys(N3)][βAla]LTF[R8]EYWAQ[Cba][S5]KAA-NH2; staple 6-13) | > 50 |  | 3.03 |  | 2 (≈ 4.02 µg/mL) | 0.253 | 216 | 2.83 | -1.59 |  |  |
| CC(=O)N[C@@H](CCCCN=[N+]=[N-])C(=O)NCCC(=O)N[C@@H](CC(C)C)C(=O)N[C@@H](Cc1c[nH]c2ccccc12)C(=O)N[C@@H](Cc1ccccc1)C(=O)N[C@]1(C)CCCCCCC=CCCC[C@@](C)(C(=O)N[C@@H](CO)C(=O)N[C@@H](C)C(=O)N[C@@H](C)C(N)=O)NC(=O)[C@H](CC2CCC2)NC(=O)[C@H](CCC(N)=O)NC(=O)[C@H](C)NC(=O)[C@H](Cc2c[nH]c3ccccc23)NC(=O)[C@H](Cc2ccc(O)cc2)NC(=O)[C@H](CCC(=O)O)NC1=O [MP-1184] (Ac-[Lys(N3)][βAla]LWF[R8]EYWAQ[Cba][S5]SAA-NH2; staple 6-13) |  |  |  |  | 28.5 (≈ 58.6 µg/mL) |  | 239 | 3.21 |  | > 50 | 0.359 |
| CC(C)C[C@@H]1NC(=O)[C@H](C)NC(=O)[C@H](Cc2c[nH]c3ccccc23)NC(=O)[C@H](Cc2ccc(O)cc2)NC(=O)[C@H](CCC(=O)O)NC(=O)[C@](C)(NC(=O)[C@H](Cc2ccccc2)NC(=O)[C@H](CO)NC(=O)[C@@H](NC(=O)[C@H](CO)NC(=O)CNC(=O)[C@H](CO)NC(=O)[C@@H](N)CCCCN=[N+]=[N-])[C@@H](C)O)CCCCCCC=CCCC[C@@](C)(C(N)=O)NC(=O)[C@H](CC(C)C)NC1=O [MP-75496] |  |  |  |  | 10 (≈ 18.1 µg/mL) |  | 236 | 2.46 |  | > 50.6 | 0.517 |
| CC(=O)N[C@@H](CCCCN=[N+]=[N-])C(=O)NCCC(=O)N[C@@H](CCCNC(=N)N)C(=O)N[C@@H](Cc1ccc(O)cc1)C(=O)N[C@@H](Cc1ccccc1)C(=O)N[C@]1(C)CCCCCCC=CCCC[C@@](C)(C(=O)N[C@@H](CO)C(=O)N[C@@H](C)C(=O)N[C@@H](Cc2ccccc2)C(N)=O)NC(=O)[C@H](CC2CCC2)NC(=O)[C@H](CCC(N)=O)NC(=O)[C@H](C)NC(=O)[C@H](Cc2c[nH]c3ccccc23)NC(=O)[C@H](Cc2ccc(O)cc2)NC(=O)[C@H](CCC(=O)O)NC1=O [MP-5546] (Ac-[Lys(N3)][βAla]RYF[R8]EYWAQ[Cba][S5]SAF-NH2; staple 6-13) |  |  |  |  | 2 (≈ 4.3 µg/mL) |  | 256 | 3.2 |  | > 50.6 | 0.511 |
| CC(=O)N[C@@H](CCCCN=[N+]=[N-])C(=O)NCCC(=O)N[C@@H](CC(C)C)C(=O)NC(C)(C)C(=O)N[C@@H](Cc1ccccc1)C(=O)N[C@]1(C)CCCCCCC=CCCC[C@@](C)(C(=O)N[C@@H](CO)C(=O)N[C@@H](C)C(=O)N[C@@H](C)C(N)=O)NC(=O)[C@H](CC2CCC2)NC(=O)[C@H](CCC(N)=O)NC(=O)[C@H](C)NC(=O)[C@H](Cc2c[nH]c3ccccc23)NC(=O)[C@H](Cc2ccc(O)cc2)NC(=O)[C@H](CCC(=O)O)NC1=O [MP-169] |  |  |  |  | 61.5 (≈ 120 µg/mL) |  | 227 | 3.06 |  | > 50 | 0.253 |
| CC(=O)N[C@@H](CCCCN=[N+]=[N-])C(=O)NCCC(=O)N[C@@H](CC(C)C)C(=O)N[C@H](C(=O)N[C@@H](Cc1ccccc1)C(=O)N[C@]1(C)CCCCCCC=CCCC[C@@](C)(C(=O)N[C@@H](CO)C(=O)N[C@@H](C)C(=O)N[C@@H](C)C(N)=O)NC(=O)[C@H](CC2CCC2)NC(=O)[C@H](CCC(N)=O)NC(=O)C(C)(C)NC(=O)[C@H](Cc2c[nH]c3ccccc23)NC(=O)[C@H](Cc2ccc(O)cc2)NC(=O)[C@H](CCC(=O)O)NC1=O)[C@@H](C)O [MP-170] |  |  |  |  | 92.5 (≈ 184 µg/mL) |  | 225 | 2.85 |  | > 50 | 0.549 |
| CC(=O)N[C@@H](CCCCN=[N+]=[N-])C(=O)NCCC(=O)N[C@@H](CC(C)C)C(=O)N[C@@H](Cc1c[nH]cn1)C(=O)N[C@@H](Cc1ccccc1)C(=O)N[C@]1(C)CCCCCCC=CCCC[C@@](C)(C(=O)N[C@@H](CO)C(=O)N[C@@H](C)C(=O)N[C@@H](C)C(N)=O)NC(=O)[C@H](CC2CCC2)NC(=O)[C@H](CCC(N)=O)NC(=O)[C@H](C)NC(=O)[C@H](Cc2c[nH]c3ccccc23)NC(=O)[C@H](Cc2ccc(O)cc2)NC(=O)[C@H](CCC(=O)O)NC1=O [MP-174, AZIDE-ATSP-7041 (T2H)] | > 50 |  | 2.115 |  |  | 0.0506 | 225 | 2.84 | 21.18 |  |  |
| CC(=O)N[C@@H](CCCCN=[N+]=[N-])C(=O)NCCC(=O)N[C@@H](CC(C)C)C(=O)N[C@H](C(=O)N[C@@H](Cc1ccccc1)C(=O)N[C@]1(C)CCCCCCC=CCCC[C@@](C)(C(=O)N[C@@H](CO)C(=O)N[C@@H](C)C(=O)N[C@@H](C)C(N)=O)NC(=O)[C@H](CC2CCC2)NC(=O)[C@H](CCC(N)=O)NC(=O)[C@H](CCC(=O)O)NC(=O)[C@H](Cc2c[nH]c3ccccc23)NC(=O)[C@H](Cc2ccc(O)cc2)NC(=O)[C@H](CCC(=O)O)NC1=O)[C@@H](C)O [MP-180] |  |  |  |  | 93 (≈ 189 µg/mL) |  | 235 | 2.38 |  | > 50 | 0.732 |
| CC(=O)N[C@@H](CCCCN=[N+]=[N-])C(=O)NCCC(=O)N(C)[C@@H](CC(C)C)C(=O)N[C@H](C(=O)N[C@@H](Cc1ccccc1)C(=O)N[C@]1(C)CCCCCCC=CCCC[C@@](C)(C(=O)N[C@@H](CO)C(=O)N[C@@H](C)C(=O)N[C@@H](C)C(N)=O)NC(=O)[C@H](CC2CCC2)NC(=O)[C@H](CCC(N)=O)NC(=O)[C@H](C)NC(=O)[C@H](Cc2c[nH]c3ccccc23)NC(=O)[C@H](Cc2ccc(O)cc2)NC(=O)[C@H](CCC(=O)O)NC1=O)[C@@H](C)O [MP-189] |  |  |  |  | 122 (≈ 242 µg/mL) |  | 226 | 3.04 |  | > 50 | 0.865 |
| CC(=O)N[C@@H](CCCCN=[N+]=[N-])C(=O)NCCC(=O)N[C@@H](CC(C)C)C(=O)N(C)[C@H](C(=O)N[C@@H](Cc1ccccc1)C(=O)N[C@]1(C)CCCCCCC=CCCC[C@@](C)(C(=O)N[C@@H](CO)C(=O)N[C@@H](C)C(=O)N[C@@H](C)C(N)=O)NC(=O)[C@H](CC2CCC2)NC(=O)[C@H](CCC(N)=O)NC(=O)[C@H](C)NC(=O)[C@H](Cc2c[nH]c3ccccc23)NC(=O)[C@H](Cc2ccc(O)cc2)NC(=O)[C@H](CCC(=O)O)NC1=O)[C@@H](C)O [MP-190] |  |  |  |  | 116 (≈ 229 µg/mL) |  | 219 | 2.73 |  | > 50 | 0.419 |
| CSCC[C@H](NC(=O)[C@H](CO)NC(=O)[C@]1(C)CCCC=CCCCCCC[C@@](C)(NC(=O)[C@H](Cc2ccccc2)NC(=O)[C@H](Cc2ccc(O)cc2)NC(=O)[C@H](CC(C)C)NC(=O)CCNC(=O)[C@H](CCCCN=[N+]=[N-])NC(C)=O)C(=O)N[C@@H](CCC(=O)O)C(=O)N[C@@H](Cc2ccc(O)cc2)C(=O)N[C@@H](Cc2c[nH]c3ccccc23)C(=O)N[C@@H](C)C(=O)N[C@@H](CCC(N)=O)C(=O)N[C@@H](CC2CCC2)C(=O)N1)C(=O)N[C@@H](CC(C)C)C(N)=O [MP-543] (Ac-[Lys(N3)][βAla]LYF[R8]EYWAQ[Cba][S5]SML-NH2; staple 6-13) |  |  |  |  | 30.5 (≈ 65.1 µg/mL) |  | 234 | 3.56 |  | > 50.6 | 0.139 |
